Series [1] deals with Claudin-1 deficient HCT116 cells. The series can be described thus: Resistance to anoikis in claudin-1 deficient cells (negative control). Format: cell-based. The text has this: The crystal structure of claudin-1 is unknown. Therefore, an in-silico protein folding program, YASARA, was used to identify an effective claudin-1 inhibitor. The resultant 3D-structure was then modeled using Molegro Virtual Docker (MVD) software program. These in-silico analyses identified putative cavities in the claudin-1 protein that can be targeted by small molecule inhibitors. Next, a 100K library of small molecules was screened in silico using the MVD. The top 10 inhibitors that bound to the Site #3 (targeting near c-terminal domain; the most accessible pocket; FIG. 2A) with the best binding energies were selected as hits and used for further testing. Screening of these inhibitors named Inihibitor-1 (1-1) to Inhibitor-10 (I-10) was done using SW480claudin-1, SW620 and control cells. Claudin-1 deficient HCT116 cells (WT-APC) or SW620shRNAcld-1 were used as negative controls. Resistance to anoikis and cell invasion was used as biological end-points in testing these inhibitors. […]

Series [2] deals with claudin-1 overexpressing cells. Put plainly: Co-treatment with 5FU, inhibition of cell growth. The note with it: 16 in combination with 5-FU. Format: cell-based. An excerpt: Curve fitting analysis was done using four parametric logistic regression curve.
The CSC cells contribute to the generation of metastasis (16-19), and key CSC characteristics are highly relevant to metastasis, including invasive motility, and, resistance to apoptosis (20,21). […] Considering that chemoresistance is central to the CRC progression and metastasis, we further tested if adjuvant use of 16 with 5FU can have significant bearing upon these traits. Colon cancer cells were subjected to exogenous administration of 16 alone, or in combination with the 5-FU, the conventional anti-CRC drug. […] To further determine the mechanistic details the effect of 16 on association of claudin-1 and Src, SW480claudin-1 cells were treated with 16 or the vehicle and resultant cell lysate was subjected to Proximity ligation assay (PLA) or Co—IP.

Series [3] can be described thus: Tissue distribution after i.v. dose. The format is in vivo, mice. The method, then: To determine the in vivo characteristics of this drug, a pharmacokinetic and tissue distribution study on 16 was performed. Following a single i.v. dose of 16 (1 mg/kg) in mice (C57B/16; n=5), serial blood samples were obtained at 0.08, 0.25, 0.75, 2, 4, 6, 8 and 24 hours after the injection and plasma samples were analyzed for 16 concentrations. Pharmacokinetic parameter values were obtained from the plasma concentration-time data using standard non-compartmental methods (WinNonlin, PharSight Corp). […] To assess the tissue distribution of 16, mice were sacrificed at 2, 8 and 24 hours after the i.v. administration of the drug. Measurable concentrations of 16 were detected in all studied tissues at 2, 8, and 24 h. […] Next, metabolic stability studies of 16 was evaluated using mouse liver S9 fractions for the in vitro assessment of phase I and II metabolism. […] Testosterone, 7-HC and diclofenac were used as positive controls, ensuring proper incubation conditions were maintained. […] The results of these in vitro drug metabolism studies guided the rational development of 16 structural analogs.
Eight-week-old healthy Balb/c mice (male and female) mice were utilized for the pharmacokinetic and biodistribution studies. In this section, up to two different administration routes (oral or IP) were evaluated for each selected drug product. The specified drug and dose were administered to a 25 g mouse. A total of 36 mice were used for each compound tested. Blood was collected by cheek bleeding at selected times between 0-168 h post-injection. Liver, spleen, kidney, brain and bone marrow were harvested at terminal time points (2, 8, 24, 48, 72 h). Tissue samples were collected and processed for bioanalysis. The drug concentration in blood and tissues was measured by LC-MS/MS using methods developed during preliminary studies and validated according to FDA guidance. Drug accumulation in tissue was assessed by calculating a tissue to plasma concentration ratio (Kp), an indicator of drug accumulation (FIGS. 6A, 6B, 7, and 38).

The nature of series [4]: Metabolic stability in mouse liver S9 fractions. The format is in vitro ADME. The procedure:
To determine the in vivo characteristics of this drug, a pharmacokinetic and tissue distribution study on 16 was performed. Following a single i.v. dose of 16 (1 mg/kg) in mice (C57B/16; n=5), serial blood samples were obtained at 0.08, 0.25, 0.75, 2, 4, 6, 8 and 24 hours after the injection and plasma samples were analyzed for 16 concentrations. Pharmacokinetic parameter values were obtained from the plasma concentration-time data using standard non-compartmental methods (WinNonlin, PharSight Corp). […] To assess the tissue distribution of 16, mice were sacrificed at 2, 8 and 24 hours after the i.v. administration of the drug. Measurable concentrations of 16 were detected in all studied tissues at 2, 8, and 24 h. […] Next, metabolic stability studies of 16 was evaluated using mouse liver S9 fractions for the in vitro assessment of phase I and II metabolism. […] Testosterone, 7-HC and diclofenac were used as positive controls, ensuring proper incubation conditions were maintained. […]
(§1) Metabolic stability and reaction phenotyping: The in vitro metabolic stability of studies was determined using mice and human liver microsomes and S9 fractions (XenoTech, LLC, Lenexa, KS, USA) following standard protocols (33, 35, 36). […] Drug concentrations were determined using LC-MS/MS. […] UGTs are analyzed in Corning® Supersomes™ if incubation of HLMs with UDPGA also results in metabolite formation.

A further series concerns SW480claudin-1 cells. The series can be described thus: Soft agar colony formation assay. The format is cell-based. An excerpt:
(§2) To this end, a library of molecules was synthesized in order to develop an initial SAR evaluation. The first compounds tested eliminated the acylated (thio) urea as well as the napthyl group and evaluated just the urea/phenyl compounds (Compounds 1-6). The methoxy group of the naphthalene ring system was needed when the benzimidazole group was present (16 vs. Compound 8). […] The result of metabolic stability was expressed as the percentage of drug remaining at each time. […] To further determine the effect of PDS-0330 on p-Src expression and association, cells were treated with Compound 1, 16 and PDS-0330. Expression and association with p-Src was unaffected with Compound 1 (negative control). The specificity of PDS-0330 for CLDN1 was further confirmed by treating SW480^CLDN1, HCT116^CLDN2 (overexpressing another tight junction protein) or normal IEC-6 cells with PDS-0330 (FIG. 12).

A short description of series [5]: Phase I metabolism in human liver microsomes. The format is in vitro ADME. To be noted: 60 minutes, compared to 16.
Excerpt: The result of the metabolic stability study was expressed as the % drug conc. remaining.
as §2, §1
On the technique in general: Microsomes from liver hold many membrane-bound enzymes, among them those of drug oxidation.

A further series concerns HCT116CLDN2 cells. Put plainly: Cell viability, specificity for CLDN1. Format: cell-based. The note with it: cells overexpressing another tight junction protein. The method, then:
(§3) SW480^claudin-1, IEC-6 (normal cells), and HCT116^CLDN2 cells were treated with different concentrations of PDS-0330 and cell viability was determined.
as §2

The test system of a further series is IEC-6 (normal cells). The series can be described thus: Cell viability, specificity for CLDN1. Format: cell-based. The method, then:
as §3, §2

In the next series the test system is SW480CLDN1 cells. The series can be described thus: Cell viability, specificity for CLDN1. Format: cell-based. The method, then: as §3, §2
The test system of series [6] is p-Src and p-EphA2 in SW480claudin-1 cells. Put plainly: Phosphorylation of Src and EphA2 versus dasatinib. Format: cell-based. The procedure:
Effects on (A) phosphorylation of Src and EphA2 and (B) cell survival (MTT assay) were determined.

Entries after “also recorded” stand apart in the source; their conditions may differ.

Turning to `COc1cc2ccccc2cc1C(=O)NC(=S)Nc1ccc(-c2nc3ccccc3[nH]2)cc1` [Compound 16], in series [1], the “effect on HCT116 cells” value is listed as “remained unaffected”. The “combination effect with 5FU” value in [2] was “significant synergy; also recorded: synergistic effect in inhibition of cell growth”. In addition, the “descending order of Kp ratios” value in series [3] (1 mg/kg i.v.) is recorded as “lungs>liver>spleen>kidney>heart>>brain”. In addition, in [3] (2, 8 and 24 h after 1 mg/kg i.v.), the tissue concentrations result is “higher concentrations in the lung and liver tissue”. Moreover, the Kp in [3] (C57B/16, mouse, iv, all tissues except brain, 1 mg/kg i.v., read-out: tissue to plasma concentration ratio (Kp)) is no less than 1. The primary metabolites identified entry in series [4] was “acetylation and hydroxylation with subsequent glucuronidation”. Besides, in series [4] (after 60 minutes, phase I and II metabolism), the drug remaining worked out at 30%.

For the compound `O=C(NC(=S)Nc1ccc(-c2nc3ccccc3o2)cc1)c1ccc2ccccc2c1` [PDS-0330], in the series on SW480claudin-1 cells, the “effect on soft agar colony formation” value was “significantly inhibited”. Besides, the metabolic stability entry in series [5] is listed as “metabolically stable over 60 minutes”. Besides, the “effect on cell viability” value in the series with HCT116CLDN2 cells and in the series on IEC-6 (normal cells) was “not affected” each time. For the same compound, the “percentage of dead cells” value in the series with SW480CLDN1 cells is “significant increase in the percentage of dead cells”. Further, the “p-EphA2 and p-Src expression” value in series [6] was “inhibited p-EphA2 expression along with p-Src; also recorded: more effective in inhibiting cell survival and p-EphA2 expression”.

Values taken from patent publication US20250009716A1, “NOVEL INHIBITORS OF CLAUDIN-1 FOR THERAPEUTIC INTERVENTIONS” (BOARD OF REGENTS OF THE UNIVERSITY OF NEBRASKA, priority 2021, published 2025).
